Reference: article PMC6151710 (Molecules : A Journal of Synthetic Chemistry and Natural …, 2017)
Read-outs that look alike come from different tables or passages of the source. Values belong to the molecule of their own block, whether it stands above or below them.

Legend:
[1] = Phase I metabolism in human liver microsomes, metabolite quantitation by UPLC-MS/MS MRM; type: in vitro ADME
Experimental: (§1) Phase I Metabolism. […] Subsequently, 150 μL of NADPH solution (final concentration of 1 mM) was added to each reaction mixture. After incubation at 37 °C for 90 min in a shaking water bath, the reaction was terminated by adding 600 μL of ice-cold methanol. The contents were vortexed for 30 s and then centrifuged at 4000 rpm for 15 min. The metabolites of psoralen and isopsoralen in the supernatant were identified by UPLC-MS/MS.
(§2) Metabolite analysis by UPLC-MS/MS. The UPLC/MS/MS method was carried out using a Waters Acquity UPLC Sample Manager and a Waters Acquity UPLC Binary Solvent Manager connected to a Waters Quattro Premier XE triple-quadruple mass spectrometer equipped with a combined ESI probe and Mass Lynx 1.4 software (Waters, Milford, MA, USA). An Acquity UPLC BEH C18 column (1.7 µm, 2.1 mm × 100 mm) was used. The instrument settings were as follows: ESI+; source temperature, 120 °C; dissolution temperature, 350 °C; capillary voltage, 3.2 kV; dissolution N2, 600 L/h; cone N2, 50 L/h. Acquisition was carried out from m/z 50 Da to 1000 Da in the total ion scan mode. MS/MS spectra were acquired from m/z 50 Da to 600 Da in the daughter ion scan mode. The solvent system consisted of solvent A (0.1% CH3COOH) and solvent B (100% ACN). The flow rate was 0.2 mL/min. The gradient elution method was 5 to 80% B over 12 min, followed by 5% B from 12 to 15 min.
(§3) Quantitation analysis of psoralen and isopsoralen metabolites by UPLC-MS/MS. […] The HPLC method and electrospray ionization were performed with the same conditions as those for metabolite analysis by UPLC-MS/MS in liver microsomes, except for the cone (30 V) and collision energy (20 V).

[2] = Phase I metabolism in mice liver microsomes, metabolite quantitation by UPLC-MS/MS MRM; type: in vitro ADME
Experimental: as §1, §2, §3

patients = test system: patients; design: method as in doi:10.5021/ad.1995.7.1.51; details: 4 of 80 patients, within 3.5–20 months of commencement of PUVA 5-MOP; cited from earlier work
animals = test system: animals; design: method as in PMID 19640237; details: 560 mg/kg daily for 12 days; cited from earlier work
KunMing (KM) mice = assay: Hepatotoxicity study in mice (GSH-depleted by BSO, CYP450 inhibition by ABT): ALT, hepatic GSH, histopathology; details: for ALT activity with additional ABT treatment / histopathological evaluation of liver, with ABT: 300 mg/kg oral alone or with BSO, plus ABT 100 mg/kg i.p.; for hepatic GSH level with ABT: 300 mg/kg oral plus ABT 100 mg/kg i.p.; for histopathological evaluation of liver, co-treatment with BSO: 300 mg/kg oral plus BSO 650 mg/kg i.p., 6 or 24 h
Experimental: Male 6-week-old KunMing (KM) mice were purchased from the Animal Institute of the Tianjin University of Traditional Chinese Medicine (Tianjin, China), and were used after a 1-week acclimatization period. The animals were housed in mice cages in a unidirectional airflow room under controlled conditions (20–24 °C, 12:12-h light:dark cycles, and free access to water). We assured that all animals received humane care according to the criteria outlined in the “Guide for the Care and Use of Laboratory Animals” prepared by the National Academy of Sciences and published by the National Institutes of Health ((NIH) publication 86–23 revised 1985).
In the hepatotoxicity study, the mice were randomly assigned to 22 groups (n = 10/group). The mice were intraperitoneally injected with BSO (650 mg/kg) in saline (0.2 mL/20 g). The intraperitoneal dosing of ABT (100 mg/kg) in saline (0.2 mL/20 g) was simultaneous with the BSO dosing. […] Food was removed 14–16 h before BSO dosing, and was supplied again 6 h after administration of the test compounds. At 6 and 24 h, blood was collected by eyeball removal, and then the liver was removed. Plasma was separated from these blood samples, and alanine aminotransferase (ALT) was determined with a commercial kit, the GPT-UV test (Nanjing jiancheng Bioengineering Institute). A piece of each liver sample was fixed in 10% formalin, embedded in paraffin wax, sectioned, and stained with hematoxylin and eosin for histopathological evaluation.
Statistical analysis. The results from the serum ALT assay were analyzed by Kruskal–Wallis non-parametric analysis of variance followed by Mann–Whitney’s U test. For the data of the GSH assay and CYP450s relative activity, comparisons between the two groups were made by independent-samples t test. SPASS 11.5 was used for these statistical analyses. Differences were considered significant when p < 0.05 or p < 0.01.

mice = details: oral 40 mg daily for 28 days in mice; cited from earlier work
CYP3A4 = CYP3A4 (Homo sapiens, UniProt P08684); assay: IC50 shift assay (pre-incubation with/without NADPH); type: in vitro ADME; details: for IC50: HLM; for IC50 Shift (fold): IC50 (−) NADPH versus (+) NADPH pre-incubation
Experimental: IC50 shift assay. In the present study, an IC50 shift assay was performed using a two-step procedure. […] After pre-incubation, a 0.02 mL aliquot of the mixture was added to a mixture containing a standard CYP substrate (final concentrations at the Km) in 0.18 mL of potassium phosphate buffer to measure CYP activities. After incubation for 15 min at 37 °C, the reactions were ceased by adding four volumes of pre-cooled methanol. The supernatants were centrifuged at 14,000 rpm for 15 min and then stored at −20 °C until the LC/MS/MS analysis of metabolites.
Analysis of samples. The LC/MS/MS method was conducted as described in [59].
IC50 value calculation. The IC50 value was calculated using GraphPad Prism (version 4.0) software (GraphPad Software, San Diego, CA, USA).

[3] = MRM mode, parent 50 μM, HLM 1.0 mg/mL, NADPH 1 mM, 90 min
[4] = MRM mode, parent 50 μM, MLM 1.0 mg/mL, NADPH 1 mM, 90 min
[5] = 300 mg/kg oral in combination with BSO 650 mg/kg i.p., 6 h
[6] = 300 mg/kg oral in combination with BSO 650 mg/kg i.p., 24 h

Sequence of CYP3A4 (P08684 whole entry): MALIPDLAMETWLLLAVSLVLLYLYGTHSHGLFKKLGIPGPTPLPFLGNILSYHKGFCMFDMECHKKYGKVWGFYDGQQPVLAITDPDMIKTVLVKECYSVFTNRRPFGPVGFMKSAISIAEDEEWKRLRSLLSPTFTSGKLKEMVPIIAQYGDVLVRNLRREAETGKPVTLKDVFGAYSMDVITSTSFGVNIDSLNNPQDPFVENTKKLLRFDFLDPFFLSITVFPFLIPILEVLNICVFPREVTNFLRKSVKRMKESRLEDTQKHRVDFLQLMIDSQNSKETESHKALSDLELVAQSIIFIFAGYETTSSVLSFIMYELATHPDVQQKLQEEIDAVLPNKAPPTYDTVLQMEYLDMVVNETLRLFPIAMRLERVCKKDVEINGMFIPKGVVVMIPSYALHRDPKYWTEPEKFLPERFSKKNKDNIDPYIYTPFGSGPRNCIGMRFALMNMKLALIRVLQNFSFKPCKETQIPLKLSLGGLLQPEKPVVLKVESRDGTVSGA

Molecule: 6-carboxymethyl-7-hydroxyl-coumarin [M′4]
Peak Area HLM [1, 3]: 34,274
Peak Area MLM [2, 4]: 96,828

Molecule: COc1c2ccoc2cc2oc(=O)ccc12 [5-MOP, 5-Methoxypsoralen]
patients with transient elevations of liver enzymes (patients): 5%
liver effect of high-dose treatment (animals): hepatocyte changes

Molecule: CCCCS(=N)(=O)CCC(N)C(=O)O [BSO, L-buthi-onine-S, R-sulfoxinine, reference compound]
plasma ALT activity after sole treatment (KunMing (KM) mice; BSO 650 mg/kg i.p. or ABT 100 mg/kg i.p. alone, at 24 h): no significant changes
hepatic GSH level after treatment with BSO alone (KunMing (KM) mice; BSO 650 mg/kg i.p., over 24 h): time-dependent decrease at least for 6 h, while returning to a normal level at 24 h
liver hazard (pathological section) after BSO alone (KunMing (KM) mice; BSO 650 mg/kg i.p., over 24 h): without hazard to the liver

Molecule: O=c1ccc2ccc3occc3c2o1 [Isopsoralen]
liver injury findings (mice): elevated serum ALT, AST, and/or ALP levels
ALT activity with additional ABT treatment (KunMing (KM) mice): completely suppressed the elevation of ALT activity
histopathological evaluation of liver, with ABT (KunMing (KM) mice): completely relieved the granular degeneration and vacuolation
plasma ALT activity (KunMing (KM) mice; [5]): 30.08 IU/L
plasma ALT activity (KunMing (KM) mice; [6]): 68.99 IU/L
hepatic GSH level with ABT (KunMing (KM) mice; at 24 h): ABT prevented the decrease
histopathological evaluation of liver, co-treatment with BSO (KunMing (KM) mice): did not aggravate the histopathology
histopathological evaluation of liver (KunMing (KM) mice; 300 mg/kg oral, alone, 6 h): weak granular degeneration
plasma ALT activity (KunMing (KM) mice; 300 mg/kg oral, alone, 6 h): 22.73 IU/L
histopathological evaluation of liver (KunMing (KM) mice; 300 mg/kg oral, alone, 24 h): diffuse vacuolation
plasma ALT activity (KunMing (KM) mice; 300 mg/kg oral, alone, 24 h): 43.20 IU/L
hepatic GSH level (KunMing (KM) mice; 300 mg/kg oral, alone, at 24 h): 9.94 ± 8.57 µM/g protein
IC50 (CYP3A4; IC50 (+) NADPH, 30 min pre-incubation with NADPH): 9.59 ± 1.04 µM
IC50 Shift (fold) (CYP3A4): 10.1 fold
IC50 Shift (fold) (CYP3A4; listed as isopsoralen): > 3 fold
IC50 (CYP3A4; IC50 (−) NADPH, 30 min pre-incubation without NADPH): 96.8 ± 2.21 µM

Molecule: O=c1ccc2c(O)c3ccoc3cc2o1 [M1]
Peak Area HLM [1, 3]: 557
Peak Area MLM [2, 4]: 1019

Molecule: O=c1ccc2cc3ccoc3c(O)c2o1 [M2]
Peak Area HLM ([1]; human, microsomes, 1.5 h, 50 μM, pH 7.4): 502
Peak Area MLM ([2]; mouse, microsomes, 1.5 h, 50 μM, pH 7.4): 8655

Molecule: O=c1ccc2cc(O)c3occc3c2o1 [M′1]
Peak Area HLM [1, 3]: 1288
Peak Area MLM [2, 4]: 14,513

Molecule: O=c1ccc2c(O)cc3occc3c2o1 [M′2]
Peak Area HLM [1, 3]: 1349
Peak Area MLM [2, 4]: 4707

Molecule: O=C(O)/C=C\c1ccc2occc2c1O [M′3]
Peak Area HLM [1, 3]: 312
Peak Area MLM [2, 4]: 418

Molecule: O=c1ccc2ccc3c(c2o1)C(O)C(O)O3 (stereo not drawn) [M′5]
Peak Area HLM [1, 3]: 1627
Peak Area MLM [2, 4]: 7725

Molecule: O=c1ccc2cc3ccoc3cc2o1 [Psoralen]
ALT activity with additional ABT treatment (KunMing (KM) mice): completely suppressed the elevation of ALT activity
histopathological evaluation of liver, with ABT (KunMing (KM) mice): completely relieved the granular degeneration and vacuolation
plasma ALT activity (KunMing (KM) mice; [5]): 59.90 IU/L
plasma ALT activity (KunMing (KM) mice; [6]): 326.07 IU/L
hepatic GSH level with ABT (KunMing (KM) mice; at 24 h): ABT prevented the decrease
histopathological evaluation of liver, co-treatment with BSO (KunMing (KM) mice): did not aggravate the histopathology
histopathological evaluation of liver (KunMing (KM) mice; 300 mg/kg oral, alone, 6 h): diffuse granular degeneration
plasma ALT activity (KunMing (KM) mice; 300 mg/kg oral, alone, 6 h): 42.17 IU/L
histopathological evaluation of liver (KunMing (KM) mice; 300 mg/kg oral, alone, 24 h): diffuse vacuolation
plasma ALT activity (KunMing (KM) mice; 300 mg/kg oral, alone, 24 h): 128.42 IU/L
hepatic GSH level (KunMing (KM) mice; 300 mg/kg oral, alone, at 24 h): 11.26 ± 3.67 µM/g protein
IC50 (CYP3A4; 30 min pre-incubation with NADPH, read-out: IC50 (+) NADPH): 19.5 ± 1.04 µM
IC50 (CYP3A4; 30 min pre-incubation without NADPH, read-out: IC50 (−) NADPH): > 200 µM

Second part, the molecule after the results:

Peak Area HLM [1, 3]: 529
Peak Area MLM [2, 4]: 164
Molecule: O=c1ccc2c(O)c3ccoc3c(O)c2o1 [M3]

Peak Area HLM [1, 3]: 66,831
Peak Area MLM [2, 4]: 98,864
Molecule: O=C(O)Cc1cc2ccc(=O)oc2cc1O [M4, 6-carboxymethyl-7-hydroxyl-coumarin]

Peak Area HLM [1, 3]: 61,016
Peak Area MLM [2, 4]: 102,180
Molecule: O=c1ccc2cc3c(cc2o1)OC(O)C3O (stereo not drawn) [M5]
